In patent US9815835B2, “Substituted polycyclic carbamolypyridone derivative” (priority 2009, dated 2017):

Legend:
[1] = biological target: cap-dependent endonuclease (RNP fraction containing PB1•PB2•PA complex) (Influenza A virus, UniProt P15659); assay: biochemical; details: RNP from A/WSN/33 virus, capped Cy3/BHQ2 30mer RNA substrate, 60 minutes at room temperature; read-out: CEN IC50
influenza virus = assay: microbe, parasite or virus in culture; format: cell-based, influenza virus (MDBK or MDCK cells); details: unidentified influenza virus, 72 h, read-out: CPE EC50, effective concentration to achieve 50% CPE inhibition, 3 days incubation, WST-8

Work on CN1C[C@H](C2c3ccccc3CSc3ccccc32)n2ccc(=O)c(O)c2C1=O (some centres unmarked) [Example 562] yielded an IC50 [1] of 22 nM and an EC50 (influenza virus) of 62 nM.

Work on O=C1NCC(C2c3ccccc3CCc3ccccc32)n2ccc(=O)c(O)c21 (centres unmarked) [Example 563] yielded an IC50 [1] of 49 nM and an EC50 (influenza virus) of 464 nM.

Work on CN1CC(C2c3ccccc3CCc3ccccc32)n2ccc(=O)c(O)c2C1=O (centres unmarked) [Example 564] yielded an IC50 [1] of 88 nM and an EC50 (influenza virus) of 136 nM.

Compound CN(C)CCN1CC(C2c3ccccc3CCc3ccccc32)n2ccc(=O)c(O)c2C1=O (centres unmarked) [Example 565] has an IC50 [1] of 154 nM and an EC50 (influenza virus) of 726 nM.

In the case of O=C1c2c(O)c(=O)ccn2C(C2c3ccccc3CCc3ccccc32)CN1c1ccccn1 (centres unmarked) [Example 569], the IC50 [1] is reported as 138 nM and the EC50 (influenza virus) is reported as 1010 nM.

Compound O=C1c2c(O)c(=O)ccn2C(C2c3ccccc3CCc3ccccc32)CN1c1cccnc1 (centres unmarked) [Example 570] has an IC50 [1] of 81 nM and an EC50 (influenza virus) of 2050 nM.

In the case of NN1CC(C2c3ccccc3CCc3ccccc32)n2ccc(=O)c(O)c2C1=O (centres unmarked) [Example 571], the IC50 [1] is reported as 65 nM and the EC50 (influenza virus) is reported as 320 nM.

Work on N#CCN1CC(C2c3ccccc3CCc3ccccc32)n2ccc(=O)c(O)c2C1=O (centres unmarked) [Example 573] yielded an IC50 [1] of 55 nM and an EC50 (influenza virus) of 158 nM.

For N#CCN1C[C@H](C(c2ccccc2)c2ccccc2)n2ccc(=O)c(O)c2C1=O [Example 574], the IC50 [1] was 165 nM and the EC50 (influenza virus) was 442 nM.

For CC(C#N)N1CC(C2c3ccccc3CCc3ccccc32)n2ccc(=O)c(O)c2C1=O (centres unmarked) [Example 575], the IC50 [1] was 58 nM and the EC50 (influenza virus) was 87 nM.

For CC(C)N1C[C@H](C2c3ccccc3CCc3ccccc32)n2ccc(=O)c(O)c2C1=O [Example 576], the IC50 [1] was 63 nM and the EC50 (influenza virus) was 27 nM.

With COCCN1CN(C(c2ccccc2)c2ccccc2)n2c(CC#N)cc(=O)c(O)c2C1=O [Example 577] the IC50 [1] was 233 nM and the EC50 (influenza virus) was 337 nM.

For CC(C)N1CN(C(c2ccccc2)c2ccccc2)n2c(N)cc(=O)c(O)c2C1=O [Example 581], the IC50 [1] was 83 nM and the EC50 (influenza virus) was 480 nM.
